Data taken from PubChem BioAssay (NCI).
“And” between values parts separate entries of the source, which are not always exact repeats. Equal entries are not always repeated.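 Results reflect a 48-hour exposure of cells in 96-well plates to compound at five concentrations. GI50 is the concentration that inhibits growth by half. TGI: concentration producing complete growth inhibition.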

How the values were obtained:
Assay in all cases: inhibition of tumour cell growth, NCI panel, 48 h
[1] = test system: CCRF-CEM leukemia
[2] = test system: HCC-2998 colon
[3] = test system: HL-60(TB) leukemia
[4] = test system: K-562 leukemia
[5] = test system: LOX IMVI melanoma
[6] = test system: NCI-H522 lung
[7] = test system: SK-MEL-28 melanoma
[8] = test system: SN12C renal
[9] = test system: SNB-75 CNS
[10] = test system: UACC-62 melanoma

Row | Compound | TGI [1] | TGI [2] | TGI [3] | TGI [4] | TGI [5] | TGI [6] | TGI [7] | TGI [8] | TGI [9] | TGI [10] | GI50 [1] [µM] | GI50 [2] [µM] | GI50 [3] [µM] | GI50 [4] [µM] | GI50 [5] [µM] | GI50 [6] [µM] | GI50 [7] [µM] | GI50 [8] [µM] | GI50 [9] [µM] | GI50 [10] [µM]
1 | COc1ccc2cccc(C(=N)c3ccc(C)c4c3CCC4)c2c1 | 26.6 µM | 23.1 µM | 9.12 µM | 10.8 µM | 25.5 µM | 10.1 µM | 26.9 µM | 24.5 µM | 27.2 µM | 15.8 µM | – | – | – | – | – | – | – | – | – | –
2 | CCN(CC)CCC(=O)Nc1ccc(Cn2nnc3c2C(=O)c2nnn(Cc4ccc(NC(=O)CCN(CC)CC)cc4)c2C3=O)cc1 | – | 0.987 µM | 0.628 µM | > 37.9 µM | 0.703 µM | 0.423 µM | 2.82 µM | 0.385 µM | 0.88 µM | 2.67 µM | 0.24 | 0.316 | 0.228 | 0.669 | 0.232 | 0.18 | 1.09 | 0.184 | 0.314 | 1.08
3 | CC(=O)[CH-]C(=O)c1ccccc1.CC(=O)[CH-]C(=O)c1ccccc1.[O]=[U+2]=[O] | > 100 µM | 65.4 µM | 80.3 µM | > 100 µM | > 100 µM | > 100 µM | > 100 µM | > 100 µM | 98.7 µM | > 100 µM | 27.8 | 18.7 | 29.6 | 37.3 | 25.4 | 65.2 | 36.2 | 56 | 23 | 33.1
4 | CC(C)OP(=O)(CP(=O)(OC(C)C)OC(C)C)OC(C)C.[CH3][Sn]([Br])([Br])[Br] | > 100 µM | > 100 µM | > 100 µM | > 100 µM | > 100 µM | > 100 µM | > 100 µM | > 100 µM | > 100 µM | > 100 µM | > 100 | > 100 | > 100 | > 100 | > 100 | > 100 | > 100 | > 100 | > 100 | > 100
5 | COc1ccccc1C(=O)c1cnc(NC2CCN(S(C)(=O)=O)CC2)nc1N | > 24.1 µM | > 25 µM | 14.3 µM | > 25 µM | > 25 µM | > 25 µM | > 25 µM | > 25 µM | > 25 µM | > 25 µM | 7.04 | 13 | 3.96 | > 25 | 6.25 | > 25 | 6.38 | 5.48 | 7.57 | 6.68
6 | CCCC/C(=N\N=C(N)N)c1ccc(F)cc1 | 11.7 µM | 11 µM | 6.09 µM | 11.2 µM | 13.5 µM | 16.5 µM | 17.6 µM | 17.3 µM | 12.5 µM | 14.8 µM | 2.23 | 2.77 | 2.29 | 0.469 | 1.33 | 3.79 | 4.21 | 4.37 | 2.36 | 3.14
7 | O=C(Cc1nc2ccc(C(=O)c3ccccc3)cc2[nH]c1=O)C(=O)Nc1ccccc1[N+](=O)[O-] | > 100 µM | > 100 µM | > 100 µM | > 100 µM | > 100 µM | > 100 µM | > 100 µM | > 100 µM | > 100 µM | > 100 µM | – | – | – | – | – | – | – | – | – | –
8 | N#CC1c2ccccc2-c2ccccc2N1C(=O)c1ccccc1 (configuration not stated) | > 36.3 µM | 22.2 µM | – | – | > 94.3 µM | 1.48 µM | > 100 µM | > 92.2 µM | > 49.4 µM | > 38.5 µM | 2.17 | 2.72 | 0.337 | 1.04 | 2.81 | 0.223 | 1.75 | 3.86 | 2.43 | 1.9
9 | O=C1C=C(Nc2cccc(Br)c2)c2ccccc2C1=O | 82.9 µM | > 100 µM | 34.5 µM | 18.3 µM | 21.5 µM | 60.1 µM | 61.4 µM | 23.8 µM | 5.01 µM | 18 µM | 21.4 | 12.1 | 9.56 | 1.52 | 4.35 | 4.79 | 8.76 | 5.79 | 0.39 | 2.96
10 | c1ccc2c(c1)nc(NCCN1CCNCC1)c1c3ccccc3[nH]c21 | 1.82 µM | 1.68 µM | 1.36 µM | 2.07 µM | 1.03 µM | 1.07 µM | 2.8 µM | 1.18 µM | 2.86 µM | 3.69 µM | 0.086 | 0.425 | 0.308 | 0.0935 | 0.295 | 0.22 | 1.37 | 0.19 | 1.44 | 1.76
11 | Cc1ccc(NCSc2ccc(Cl)cc2)cc1 | > 100 µM | > 100 µM | > 100 µM | > 100 µM | > 100 µM | > 100 µM | > 100 µM | > 100 µM | 45.5 µM | > 100 µM | 0.995 | > 100 | 2.45 | > 100 | > 100 | 21.9 | > 100 | 7.01 | 9.92 | 87.2
12 | C/C(=C(/c1ccc(O)cc1)c1ccc(OCCN2CCCC2)cc1)c1ccccc1 | 9.85 µM | 6.18 µM | 4.97 µM | 4.77 µM | 3.29 µM | 5.09 µM | 3.41 µM | 25.7 µM | 15.7 µM | 4.72 µM | 3.2 | 2.34 | 2.04 | 1.81 | 1.72 | 2.1 | 1.65 | 9.17 | 3.07 | 2.26
13 | O=C1c2c(O)cccc2C(C(=O)CCCCC(=O)C2c3cccc(O)c3C(=O)c3c(O)cccc32)c2cccc(O)c21 | 2.65 µM and 2.61 µM | 2.63 µM and 3.14 µM | 1.14 µM and 1.67 µM | 7.66 µM and 2.49 µM | 2.74 µM and 5.08 µM | 1.07 µM and 2.92 µM | 2.5 µM and 3.27 µM | 3.89 µM and 9.64 µM | 3.44 µM and 3.32 µM | 2.48 µM and 5.78 µM | 1.2 | 1.07 | 0.744 | 1.21 | 1.56 | 1.25 | 1.54 | 3.31 | 1.4 | 1.62
14 | Cc1cc(N(CCC#N)S(=O)(=O)c2ccccc2)ccc1C=O | > 100 µM | > 100 µM | > 100 µM | > 100 µM | > 100 µM | > 100 µM | > 100 µM | > 100 µM | > 100 µM | > 100 µM | – | – | – | – | – | – | – | – | – | –
15 | Cc1ccc([P+](Cc2ccc([N+](=O)[O-])cc2)(c2ccc(C)cc2)c2ccc(C)cc2)cc1 | 12.5 µM | 11.8 µM | 3.14 µM | 12.3 µM | 12.5 µM | 4.26 µM | 12.9 µM | 17.5 µM | 8.77 µM | 6.34 µM | 1.92 | 2.87 | 0.997 | 1.28 | 2.32 | 1.56 | 2.82 | 4.27 | 1.99 | 1.43
16 | O=C1OC(c2ccc(O)cc2)(c2ccc(O)cc2)c2cccc3cccc1c23 | 48.4 µM | 32.5 µM | 45.5 µM | 61.3 µM | 34.7 µM | 33.5 µM | 29.5 µM | 38.4 µM | 27.1 µM | 25.7 µM | 19.8 | 15.8 | 18 | 15.7 | 15.2 | 14 | 14.3 | 12.7 | 9.97 | 11.3
